In US4857652A, “Chemiluminescent 1,2-dioxetane compounds” (priority 1988, dated 1989):

Assays:
[1] = system: alkaline phosphatase, Type VII-S from Bovine Intestinal Mucosa; assay: Enzymatic triggering of chemiluminescence with alkaline phosphatase (bovine); assay type: biochemical; conditions: 2-amino-2-methyl-1-propanol buffer pH 10.3, 37° C., 10 μL enzyme suspension
Method: A cuvette containing 3 mL of a buffer solution of 2-amino-2-methyl-1-propanol (Sigma Chemical Co., pH=10.3, 1.5M) was placed in the black box at 37° C. A portion (200 μL) of the dioxetane stock solution (6d in CH2 Cl2) was added to this buffer solution. Subsequent addition of 10 μL of an alkaline phosphatase suspension [Sigma, Type VII-S from Bovine Intestinal Mucosa, suspension in 3.2M (NH4)2 SO4 ] gave rise to chemiluminescence over a period of approximately 2-3 min indicating the enzymatic triggering of the dioxetane.

[2] = 25° C.; cited from earlier work

Structure (SMILES)	period of chemiluminescence [1]	rate of decomposition relative to protonated form (X=OH) [2]
O=P(O)(O)Oc1ccc2c(c1)Oc1ccccc1C21OOC12C1CC3CC(C1)CC2C3 (centres unmarked) [Dioxetane 6d, Dispiro[adamantane-2,3'-[1,2]dioxetane-4',9"-(3-phosphate-9H-xanthene]]	2 to 3 min	
Oc1ccc(C23OCCOC2(c2ccccc2)OO3)cc1 (centres unmarked) [deprotonated dioxetane (X=O^-)]		5.7×10^6 times
